From patent publication US20020018806A1, “Lipopeptide adjuvants” (priority 2000, published 2002)

Test system: peripheral blood mononuclear cells
Test: T-cell promiscuity in unimmunized humans: PBMC proliferation with lipopeptide (3H-thymidine incorporation)
Assay type: cell-based, human
Details: PBMC 3×10^5/well, 5-6 days with lipopeptide, responder = ≧2 S.I. (cpm with antigen/cpm media only)

**Q.** With Tetanus toxoid as the substance, how does the Responder/Total read?
**A.** The Responder/Total was 10/21.
